Measured values taken from patent US20160008339A1, “PSORALEN DERIVATIVES FOR PREVENTING OR TREATING HEART FAILURE OR CARDIAC HYPERTROPHY” (MAX-DELBRUCK-CENTRUM FUR MOLEKULARE MEDIZIN, priority 2012, published 2016).

Legend:
[1] = system: AKAP-Lbc mediated RhoA/SRF activation; assay: Dual luciferase SRE reporter assay, AKAP-Lbc transfected HEK293; format: cell-based; conditions: Homo sapiens
Protocol: (§1) The experiments were performed following the protocol of the dual luciferase reporter assay (Promega). HEK293 cells were transfected with plasmid DNAs of two luciferases and plasmids of different exchange factors. A serum response element was located ahead of the coding luciferase sequences. Activated RhoA activates the serum response element, which enables the expression of the firefly luciferase. After 4 hours the cells were treated with compound 31413. After additional twenty four hours the cells were lysed in passive lysis buffer (Promega). The luciferase activity in the cell lysate was determined by measurement of the luminescence signal according to above mentioned protocol with 96 well plate (OptiPlate 96) and LarII- and. Stop-&Glow-substrate solutions in a micro plate reader
(§2) To rule out that other RhoGEF are influenced by the inventive compounds in their activity, HEK293 cells were transfected with different RhoGEF constructs. Additionally, as normalization control, two luciferase plasmids were added, which code for a serum response element (SRE) coupled firefly luciferase and for a Renilla luciferase, respectively. […] The luciferase activities were determined in the lysate. […] Further, the luciferase activity of the indicated RhoGEFs was analysed in absence or presence of 50 μmol/L compound 31413 (FIG. 4 B).

[2] = system: different RhoGEF constructs; assay: Dual luciferase SRE reporter assay, other RhoGEF constructs in HEK293; format: cell-based, human; conditions: 50 μmol/L, vs DMSO treated control
Protocol: as §1, §2

[3] = system: GαqRC and p63RhoGEF (Gαq coupled activation of RhoA); assay: Rhotekin-based precipitation of RhoA-GTP, HEK293 transfected with GαqRC / p63RhoGEF; format: cell-based, human; conditions: 50 μmol/L
Protocol: HEK293 cells were seeded in 6-well plates. One day later the cells were transfected with the following plasmid DNAs:
After additional 24 hours the cells were treated with compound 31413 (50 μmol/L) or DMSO for 30 min at 37° C. Subsequently, the cells were lysed in precipitation buffer (50 mM Tris pH 7.4, 150 mmol/L NaCl, 4 mmol/L MgCl2; 10% v/v glycerol, 1% octylphenoxypolyethoxyethanol [IPEGAL]) and centrifugated 20000 g for two minutes to remove cell debris. 40 μl of the lysate were taken for the determination of the total RhoA content. The residual lysate was incubated with 40 μl GSH-sepharose coupled GST-rhotekin for one hour at 4° C. Then, the GSH-sepharose was washed twice with precipitation buffer, enriched with SDS-PAGE loading buffer and heated 5 min at 90° C. […] The ratio between total RhoA and Rho-GTP was densitometrically determined.
The activation state of RhoA was determined with a Rho binding region of the rhotekin protein, a Rho effector, immobilised on a sepharose bead in the presence and absence of compound 31413. […]
GTP-bound RhoA was detected by rhotekin precipitation (FIG. 3). The precipitation of RhoA from transfected HEK293 cells was performed with a rhotekin sepharose, and analysed with SDS-PAGE and immunoblotting with a RhoA specific antibody. […] The precipitated RhoA-GTP was separated with SDS-PAGE, blotted and detected with a specific anti-RhoA antibody.

[4] = system: primary neonatal cardiomyocytes (α-sceletal muscle actin mRNA); assay: Hypertrophy marker α-actin 1 mRNA by quantitative real-time PCR; format: cell-based, rat
Protocol: Primary neonatal cardiomyocytes were prepared as described above. The cardiomyocytes were stimulated for 24 or 48 hours with 100 μmol/L phenylephrin (PE) or 10 μmol/L isoproterenol (ISO) in absence or presence of 10 μmol/L or 50 μmol/L of compound 31413.
After 24 hours or 48 hour of stimulation, the medium was removed, and every well was washed with 2 ml phosphate buffered saline and fixed with 200 μl TRIzol. The cells were removed from each well and transferred into a 1.5 ml Eppendorf tube, respectively.
For cell breakdown, 40 μl chloroform was added to each Eppendorf tube. The broken cells were centrifuged for 15 min at 1400 g and 4° C. The supernatant containing RNA/DNA was taken, mixed with 100 μl isopropanol and centrifugated for 20 min at 1500 g and 4° C. The supernatant was discarded and the pellet was resuspended in 500 μL ethanol. The RNA from the pellet was purified by chromatography. The concentration of the RNA was determined by NANODROP.
The quantification of the hypertrophy marker α-sceletal muscle actin (α-actin 1) mRNA was performed by quantitative real-time PCR. First, the RNA was transcribed to a cDNA with a SuperScript™III First-Strand Synthesis SuperMix (Invitrogen) and random hexamer primers. The cDNA was amplified in a PCR reaction in an Applied Biosystem StepOne™ Real-Time PCR System. Glycerinealdehydephosphate dehydrogenase and NTC (no template control) was used as controls. All samples were triplicates. The following primers have been used: […]

COc1ccc(-c2coc3cc4oc(=O)c(C)c(C)c4cc23)cc1 [Compound 31413, 3-(4-methoxyphenyl)-5,6-dimethyl-furo[3,2-g]chromen-7-one] was tested, and the IC50 [1] was about 25 µM, the “luciferase activity of the indicated RhoGEFs” value [2] was “None of the investigated GEF shows a significant reduction” and the “precipitated amount of RhoA-GTP” value [3] was “no difference”. The “α-actin 1 mRNA amount” value ([4]; PE 100 μmol/L 24 h, compound 10 or 50 μmol/L) was “concentration dependent decrease” and the “relative amount of α-actin 1 mRNA” value ([4]; without PE stimulation) was “no significant change”.
